Experimental data: patent US20100178362A1, “CHROMIUM COMPLEXES FOR IMPROVEMENT OF MEMORY AND COGNITIVE FUNCTION” (priority 2007, published 2010)
Where two headings read alike, the source gives them in different places.

Experiments:
HFD/STZ-treated rats = assay: Rat model of type 2 diabetes (high-fat diet + streptozotocin): chromium, carbohydrate metabolism and serotonergic properties; type: in vivo, male Sprague-Dawley rats; design: Cortisol: unit not given here
Procedure: An animal model of type 2 diabetes was produced by feeding male Sprague-Dawley rats (n=33) with a high-fat diet (HFD, 40% Kcal from fat) for 2 weeks, then intraperitoneally administering streptozotocin (STZ, 40 mg/kg). The HFD/STZ-treated rats were then administered 80 mcg chromium picolinate/kg body weight/day for 10 weeks. Chromium picolinate was obtained from Nutrition 21, Purchase, N.Y. Untreated Sprague-Dawley (standard control diet) and HFD/STZ-treated rats not administered chromium picolinate served as controls.
Chromium picolinate administration to HFD/STZ treated rats increased brain chromium levels and improved all measurements or carbohydrate metabolism and serotonergic properties.

[1] = tested on: spatial learning and memory; assay: Morris Water Maze test of spatial learning and memory; type: in vivo, male Wistar rats; settings: for Improvement of spatial learning and/or memory: control animals and insulin-resistant animals; for Escape latency compared to controls: treatment for twelve weeks
Text: 8-week old, male, Wistar rats were divided into eight groups: four control groups (C) and four insulin-resistant groups (HFD). Insulin resistance was induced in by feeding the rats a high-fat diet (40% of calories as fat). The four groups in the control and insulin-resistant groups included: a no treatment group, a 14.3 mcg chromium picolinate group (CrPic), a 19.7 mcg chromium histidinate group (CrHis), and a 7.15 chromium picolinate and 9.85 chromium histidinate group (CrPic+CrHis). Four rats were assigned to each of the eight groups. Treatments were administered for twelve weeks.
Spatial learning and memory were then tested using the Morris Water Maze test. Rats were placed in a circular water tank (120 cm diameter, 50 cm height) that was partially filled with water (25° C.). Milk powder was used to render the water opaque. Each rat was acclimated to the task with two days of free-swimming in the pool with no platform. […] Distal spatial cues were provided and kept constant throughout the testing, such that the rats could use the cues to find the platform. Rats were given 60 seconds to find the platform during each trial. The escape latency was defined as the time required for the rat to find a hidden platform.
A probe trial was performed in which the hidden platform was removed from the pool, and the animal was allowed to swim for 60 seconds. Typically, a rat will swim in a quadrant of the pool where the platform was previously hidden.

[2] = Placebo-controlled trial in Mild Cognitive Impairment: chromium to creatinine ratio; type: in vivo, men and women
Procedure: (§1) A randomized, double blind, placebo-controlled trial is conducted to evaluate the efficacy of chromium picolinate in producing enhancements of neuropsychological function in men and women with Mild Cognitive Impairment. Changes in indices of glucose metabolism and in salivary cortisol levels also are measured to gather exploratory information concerning potential mechanisms by which the intervention produces its effects. The subjects participate in a 12-week protocol with major assessments of neuropsychological and biological measures at pre-treatment baseline and during the final week of the intervention. In addition, a brief interim evaluation of neurocognitive function is conducted at 6 weeks to gather information that to assess trends and acute response. Mood, as a potential covariate of the neurobehavioral outcome measures, is also assessed. Overall diet and consumption of other supplements are assessed with diet diaries at different phases of the intervention. Compliance and adverse responses are monitored throughout the period of the intervention by means of weekly telephone contacts.
(§2) Chromium picolinate: The chromium supplement is provided by Nutrition21, Purchase, N.Y., a major distributor of the chromium picolinate supplement form. […]

memory function = assay: California Verbal Learning Test in trial subjects with Mild Cognitive Impairment; type: in vivo, men and women
Procedure: as §1
California Verbal Learning Test: The California Verbal Learning Test (CVLT) is among the best designed of a number of list learning procedures used to assess memory consolidation ability. It provides data on learning rate or efficiency, interference effects, recall, and recognition memory. Reliability and validity data are adequate and well established. Our data with a middle-aged sample indicated a trend for recall and recognition memory effects on this procedure.
(§3) Chromium picolinate: The chromium supplement is provided by Nutrition21, Purchase, N.Y., a major distributor of the chromium picolinate supplement form. A single capsule 1000 mcg dose is administered to subjects receiving the chromium treatment with the morning meal each day for the duration of the intervention. Similar appearing placebo capsules are administered in a similar manner to subjects receiving the placebo treatment.

motor speed = assay: Trail-Making task in trial subjects with Mild Cognitive Impairment; type: in vivo, men and women
Procedure: as §1, §2

cerebral activation = assay: fMRI during working memory (visual-spatial n-back) task in trial subjects with Mild Cognitive Impairment; type: in vivo, men and women
Procedure: as §1, §3
A neuropsychological protocol is administered and fMRI scans are obtained before and after treatments using a Varian INOVA 4 Tesla scanner. Two runs of BOLD EPI, 30 contiguous 5 mm coronal slices are acquired. Images are obtained while subjects performed the NIH visual-spatial n-back task with 0- and 1-back blocks. There are 20, 1.5 s trials per block; each block repeated 6 times. Image analyses are performed using AFNI and included co-registration, motion correction, blur, normalization, and event-related analysis. […]

rats = settings: cited from earlier work
[3] = 80 mcg chromium picolinate/kg body weight/day for 10 weeks, mean ± SD
[4] = 80 mcg/kg body weight/day for 10 weeks
[5] = control rats (C), FIGS. 1A and 1C
[6] = Study 1: 1000 mcg elemental chromium daily, 12 weeks, v placebo, effect size moderate
[7] = as printed under Results - Study 2

chromium picolinate
CISI (insulin sensitivity) (HFD/STZ-treated rats; [3]): 1.3 ± 0.04 | Chromium - Brain (HFD/STZ-treated rats; [3]): 22.6 ± 1.2 ng/g | Cortisol (HFD/STZ-treated rats; [3]): 11.5 ± 0.4 | Glucose (HFD/STZ-treated rats; [3]): 287.0 ± 2.7 mg/dL | Insulin Brain (HFD/STZ-treated rats; [3]): 8.9 ± 2.0 ng/g | Insulin Serum (HFD/STZ-treated rats; [3]): 25.9 ± 0.5 uU/mL | Melatonin (HFD/STZ-treated rats; [3]): 16.3 ± 0.2 µg/g | Serotonin Brain (HFD/STZ-treated rats; [3]): 520.3 ± 4.1 µg/g | Serotonin Serum (HFD/STZ-treated rats; [3]): 174.9 ± 2.5 mg/dL | Tryptophan Brain (HFD/STZ-treated rats; [3]): 5.5 ± 0.2 µg/g | Tryptophan Serum (HFD/STZ-treated rats; [3]): 16.1 ± 0.3 mg/dL | Insulin resistance compared to the HFD/STZ group (HFD/STZ-treated rats; [4]): reduced | Tolerability / adverse events (HFD/STZ-treated rats; [4]): well tolerated without any adverse events | Improvement of spatial learning and/or memory [1]: effective in improving spatial learning and/or memory | Escape latency compared to controls [1, 5]: significantly shorter escape latencies on day 3 | Chromium to creatinine ratios at treatment termination ([2]; Study 1: 1000 mcg elemental chromium daily for 12 weeks (n=11) v placebo (n=10), F=8.85, p=0.008): significantly elevated | Chromium to creatinine ratios at treatment termination ([2]; Study 2: 1000 mcg elemental chromium daily for 12 weeks (n=9) v placebo (n=4), F=8.86, p<0.0001): elevated | Accuracy of memory on the California Verbal Learning Test (memory function; Study 1: 1000 mcg elemental chromium daily, 12 weeks, v placebo): No group differences | Semantic interference (free recall intrusions) (memory function; [6]): trend for reduced semantic interference | Intrusion errors on the California Verbal Learning Test (memory function; Study 2: administered outside the scanner, relative to the placebo group): reduced intrusion errors | Accuracy of memory on the California Verbal Learning Test (memory function; [7]): No group differences | Semantic interference (memory function; [7]): trend for reduced semantic interference | Motor speed on the Trail-Making task (motor speed; [6]): trend for enhanced motor speed | Motor speed (motor speed; as printed under Results - Study 2, sentence breaks off): trend for enhanced motor | fMRI activation pattern, pre- v post-intervention scans (cerebral activation; Study 1: individual subjects, increasing working memory load): increasing activation in left frontal and left parietal cortices | Performance on the working memory task (cerebral activation; Study 2: n-back task in the scanner, v placebo): not reflected in differential performance | fMRI activation relative to placebo treated subjects (cerebral activation; Study 2: right thalamic, right temporal, right posterior parietal and bilateral frontal regions, p=0.005 corrected): greater activation | Toxic effects (rats; rat, in vivo): without toxic effects

chromium histidinate
Improvement of spatial learning and/or memory [1]: effective in improving spatial learning and/or memory | Escape latency compared to controls [1, 5]: significantly shorter escape latencies on day 3 | Escape latency compared to controls ([1]; insulin-resistant rats (HFD), FIGS. 1B and 1D): significantly shorter escape latencies on days 3 and 5

[Cl][Cr]([Cl])[Cl] [chromium chloride]
Toxic effects (rats; rats, levels several thousand times the upper limit of the human ESADDI for chromium (based on body weight)): without toxic effects
